In series [1] the test system is P19-derived neurons. The experiment in a line: Neuritogenic assay (neurite number and length). Format: cell-based, Murine. The settings on record: 1 nM, 24 h, 30 neurons measured. As for the experimental part:
Murine P19 embryonic carcinoma cells were purchased from American Type Culture Collection (ATCC), USA. P19 cells were cultured as described by Mcburney in a slightly modification. In brief, the undifferentiated P19 cells were cultured as monolayers in α-MEM with 7.5% NCS, 2.5% FBS, and 1% antibiotics-antimycotic solution in a 25-cm^2 tissue culture flask, incubated at 37°C in a humidified atmosphere of 5% CO2. Cells in monolayer cultures were maintained in exponential growth phase by subculturing every 2 days until use.
The exponentially grown cultures indicated the cells density by trypan blue exclusion assay. Then, neuronal differentiation was induced by seeding 2 × 10^6 cells/mL cell in a 100 mm bacteriological grade culture dish containing 10 mL α-MEM supplemented with 5% FBS, 1% antibiotics-antimycotic solution, and 0.5 μM RA. […]
The assay was carried out with P19-derived neurons cultured in a poly-L-lysine-precoated 6-well plate. […] Average length and number of neurites of 30 neurons from the assay were measured. […] The data were expressed as the mean ± SEM from three independent experiments.

A short description of series [2]: DPPH microplate assay (radical scavenging activity). The settings on record: for Antioxidant IC50 (radical scavenging activity) / Antioxidant % inhibition (at 100 µg/mL): mean ± SEM (n = 3). As for the experimental part:
The antioxidant capacity was estimated in terms of radical scavenging activity according to a modified version of Brand-Williams method. Briefly, 100 μL of tested compounds at least 5 concentrations (dissolved in MeOH) was thoroughly mixed with 100 μL of freshly prepared DPPH solution (3 × 10^−5 M dissolved in MeOH). The reaction mixture was incubated for 30 min, then, the absorbance was read at 517 nm. Each assay was done in triplicate. IC50 value was determined by a linear regression analysis between the inhibition percentages against the concentration of tested compounds by using the Excel program.

For series [3], the target named is T1, AChE (purified enzyme from eel (Electrophorus electricus) type VI-s) (Electrophorus electricus, UniProt O42275).
T1 construct: a purified enzyme from eel (Electrophorus electricus) type VI-s; purchased Sigma (St. Louis, MO, USA); host or cells: purified from electric eel (natural source)
The experiment in a line: biochemical. Conditions: mean ± SEM (n = 3); for inhibition at 100 µg/mL: read-out: Anticholinesterase (using purified enzyme from E. electricus) % inhibition (at 100 µg/mL). As for the experimental part:
Ellman's colorimetric method and modified method using 96-well microplates were used. Briefly, […], the product of hydrolysis reaction of ACh by cholinesterase, will react with DTNB to give 2-nitro-5-thiobenzoate (NTB^−), which ionizes to the NTB^2- dianion (in water at pH 8). This NTB^2- ion appears as yellow, which is quantified by measuring the absorbance of visible light at 405 nm. Briefly, tested compound was prepared in buffer a containing 50% MeOH. In a 96-well microtiter plate, 25 μL of tested sample was added to 200 μL reaction medium that consisted of 50 μL of buffer (50 mM TrisHCl pH 8.0) containing 0.1% BSA, 125 μL of 3 mM DTNB in buffer containing 0.1 M NaCl, and 0.02 M MgCl2·2H2O and 25 μL of 15 mM ATCI in deionized water. These contents were mixed and preincubated for 5 min at 37°C. The plate was pre-read at 405 nm using a microplate reader (TECAN M200, Switzerland). Thereafter, the reaction was initiated by the addition of 25 μL of AChE (0.22 U/mL). After 20 min incubation at 37°C, absorbance was measured again within 4–7 min. The reaction control consisted of reaction medium (200 μL), 25 μL of enzyme, and 25 μL of 50% MeOH in buffer. Two blanks were also carried out (with and without sample), and MeOH was used as the solvent control. […] Each assay was done in triplicate.

Series [4] concerns the target cellular AChE of SK-N-SH cells (Homo sapiens, UniProt P22303). The experiment in a line: cell-based. More on the design: host or cells: SK-N-SH human neuroblastoma cells. The settings on record: for IC50: mean ± SEM (n = 3), read-out: Anticholinesterase (using neuroblastoma cell) IC50 (converted); for inhibition at 100 µg/mL: read-out: Anticholinesterase (using neuroblastoma cell) % inhibition (at 100 µg/mL), 100 µg/mL, mean ± SEM (n = 3). How it is done:
The human neuroblastoma cell line SK-N-SH was purchased from the American Type Culture Collection (Manassas, VA, USA). The SK-N-SH cells were cultured in minimum essential medium from Gibco (California, USA), supplemented with 10% heat inactivated FBS, 2% supplementary amino acid solution, and 1% Glutamax (Gibco, California, USA), 1% penicillin/streptomycin. Incubation was carried out at 37°C in a humidified atmosphere of 5% CO2-95% […] atmosphere. Cells were seeded into 96-well microplates (Nunc, Roskilde, Denmark) at a density of 1 × 10^5 cells/mL (100 μL in each well). Experiments were carried out after 24 h of seeding.
One of the important neuronal properties of SK-N-SH cells is the synthesis of neurotransmitter enzymes. The inhibition activity of samples on this cell line was investigated by the modified Ellman's colorimetric method. The condition was slightly modified to enable the cellular enzyme to work properly. Briefly, 25 μL of sample dissolved in buffer containing 50% methanol, 100 μL of 3 mM DTNB in buffer containing 0.1 M NaCl and 0.02 M MgCl2·2H2O, and 25 μL of 15 mM ATCI in deionized water were added to the well containing 100 μL of the cells. The absorbance at 405 nm was measured by a microplate reader (TECAN M200, Switzerland). All assays were done in triplicate.

Series [5] in a line: in vitro. Format: cell-based. Conditions: mouse.
Experimental: The exponentially grown cultures indicated the cells density by trypan blue exclusion assay. Then, neuronal differentiation was induced by seeding 2 × 10^6 cells/mL cell in a 100 mm bacteriological grade culture dish containing 10 mL α-MEM supplemented with 5% FBS, 1% antibiotics-antimycotic solution, and 0.5 μM RA. […] After 4 days of RA treatment, aggregates were dissociated with trypsin, washed, resuspended on poly-L-lysine-precoated 96-well plates (plates were previously coated with 50 μg/mL poly-L-lysine dissolved in PBS for overnight and sterilized under UV light for 30 min) at a cell density of 7 × 10^4 cells/mL (150 μL/well) in α-MEM supplemented with 10% FBS and 1% antibiotics-antimycotic solution, and incubated for 24 h. Ara-C (10 μM) was added at day one after plating to inhibit the proliferation of nonneuronal cells. […]
The procedure was carried out on P19-derived neurons cultured in a 96-well plate [29]. […] The data were expressed as the mean ± SEM (n = 3), with the medium as a control representing 100% cell viability.
Series [6] has as its system P19-derived neurons. The experiment in a line: Neuroprotective activity against oxidative stress induced by serum deprivation (XTT). Conditions: 1 nM, 24 h. Format: cell-based, Murine.
Experimental: Murine P19 embryonic carcinoma cells were purchased from American Type Culture Collection (ATCC), USA. P19 cells were cultured as described by Mcburney [24, 25] in a slightly modification [26, 27]. In brief, the undifferentiated P19 cells were cultured as monolayers in α-MEM with 7.5% NCS, 2.5% FBS, and 1% antibiotics-antimycotic solution in a 25-cm^2 tissue culture flask, incubated at 37°C in a humidified atmosphere of 5% CO2. Cells in monolayer cultures were maintained in exponential growth phase by subculturing every 2 days until use.
The blank control was cultured in α-MEM supplemented with 10% FBS and 10 μM Ara-C. The cell survival ability was measured using the XTT method.

Consider five compounds from article PMC3693115 (Evidence-based Complementary and Alternative Medicine : eCAM, 2013).

Molecules are shown by their SMILES. Where only a bound is given, the exact number is not on record here.

T1 sequence (O42275 24-633): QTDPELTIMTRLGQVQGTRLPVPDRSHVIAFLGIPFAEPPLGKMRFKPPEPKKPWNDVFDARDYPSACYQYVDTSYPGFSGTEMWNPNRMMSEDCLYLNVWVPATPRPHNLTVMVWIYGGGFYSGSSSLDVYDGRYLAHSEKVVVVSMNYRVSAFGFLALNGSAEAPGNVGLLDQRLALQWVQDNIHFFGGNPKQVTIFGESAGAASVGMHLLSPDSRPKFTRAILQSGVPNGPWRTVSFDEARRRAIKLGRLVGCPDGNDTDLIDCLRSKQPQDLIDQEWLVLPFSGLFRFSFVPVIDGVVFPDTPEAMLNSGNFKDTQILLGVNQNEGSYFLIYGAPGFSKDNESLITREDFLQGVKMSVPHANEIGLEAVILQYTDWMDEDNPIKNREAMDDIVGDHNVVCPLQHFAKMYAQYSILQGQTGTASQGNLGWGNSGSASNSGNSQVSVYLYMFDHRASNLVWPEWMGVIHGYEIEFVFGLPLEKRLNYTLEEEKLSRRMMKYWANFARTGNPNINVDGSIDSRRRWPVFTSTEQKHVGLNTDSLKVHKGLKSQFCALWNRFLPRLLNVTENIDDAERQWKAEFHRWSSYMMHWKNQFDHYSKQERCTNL
Sequence of cellular AChE of SK-N-SH cells (P22303 32-614): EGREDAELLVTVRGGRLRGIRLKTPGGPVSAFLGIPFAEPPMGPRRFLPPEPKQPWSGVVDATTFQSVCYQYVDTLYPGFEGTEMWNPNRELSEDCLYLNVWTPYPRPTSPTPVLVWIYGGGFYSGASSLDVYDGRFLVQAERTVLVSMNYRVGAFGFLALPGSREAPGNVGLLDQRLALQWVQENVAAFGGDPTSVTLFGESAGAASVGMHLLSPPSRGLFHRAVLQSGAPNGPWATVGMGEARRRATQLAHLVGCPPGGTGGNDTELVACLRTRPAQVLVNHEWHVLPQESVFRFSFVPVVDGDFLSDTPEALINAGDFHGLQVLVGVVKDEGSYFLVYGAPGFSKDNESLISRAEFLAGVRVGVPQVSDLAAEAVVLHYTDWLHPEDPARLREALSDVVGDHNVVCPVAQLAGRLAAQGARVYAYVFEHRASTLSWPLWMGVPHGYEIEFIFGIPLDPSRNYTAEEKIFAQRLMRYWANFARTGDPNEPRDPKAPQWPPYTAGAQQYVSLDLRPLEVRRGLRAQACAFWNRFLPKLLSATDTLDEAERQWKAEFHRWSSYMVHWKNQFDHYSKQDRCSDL

In series [1], `COC1=C2C[C@@H](C)C[C@H](OC)[C@H](O)[C@@H](C)/C=C(\C)[C@H](OC(N)=O)[C@@H](OC)/C=C\C=C(/C)C(=O)NC(=CC1=O)C2=O` [geldanamycin, Geldanamycin, reference compound] gave an Amount of neurites of 2.03 ± 1.30.
`Cc1c(C)c2c(c(C)c1O)CCC(C)(C(=O)O)O2` (centres unmarked) [Trolox, reference compound]: the “Antioxidant IC50 (radical scavenging activity)” value (shortened to “Antioxidant IC50”) in series [2] turned out to be 12.54 ± 0.89 µg/mL.
The term IC50 denotes the midpoint of a concentration-inhibition curve. `O=C(O)c1cc(O)c(O)c(O)c1` [Gallic acid]: in series [2], the “Antioxidant % inhibition (at 100 µg/mL)” value is listed as 94.76 ± 0.51% and the “Antioxidant IC50” value came out at 4.83 ± 0.02 µg/mL. In addition, in series [3] (read-out: Anticholinesterase (using purified enzyme from E. electricus) IC50 (converted)), the IC50 is 74.8 µM. The inhibition at 100 µg/mL in series [3] was determined as 73.64 ± 0.06%. In series [4], the IC50 is 16.4 µM and the inhibition at 100 µg/mL was 90.7 ± 2.66%.
In general, viability refers to a read-out of living cells in per cent, often relative to untreated cells. For `O=c1c(O)c(-c2ccc(O)c(O)c2)oc2cc(O)cc(O)c12` [Quercetin, 3,3′,4′,5,7-pentahydroxyflavone], in series [2], the “Antioxidant % inhibition (at 100 µg/mL)” value worked out at 92.61 ± 0.99% and the “Antioxidant IC50” value turned out to be 3.18 ± 0.07 µg/mL. In addition, the IC50 in series [2] (converted to molar, read-out: Antioxidant activity IC50 in micromolar range) is 9.4 µM. Also, in series [3], the inhibition at 100 µg/mL came to 80.9 ± 2.52%. In addition, the IC50 at 18 h in series [5] was over 10 µM. In addition, the viability at 24 h, 0.001 µM in series [5] (1 nM, 24 h treatment, relative to control (100%), read-out: % cell viability of cultured neurons) is over 100%. The Neurite length in series [1] is reported as 139.00 ± 108.80 μm. Also, the “Cell survival in serum-supplemented culture” value in series [6] (compared to the control (P19SM)) came out at 128.01%. In addition, in series [6] (serum-free α-MEM, serum deprivation alone 31.16%), the “Cell survival in serum-deprived culture” value came out at 88.29%. Moreover, in series [4], the IC50 is 121 µM and the inhibition at 100 µg/mL came to 82 ± 3.34%.
`O=C1O[C@H]([C@@H](O)CO)C(O)=C1O` [Ascorbic acid, reference compound]: in series [2], the “Antioxidant IC50” value was found to be 10.52 ± 0.48 µg/mL.
